Data from patent US8916599B2, “1H-benz imidazole-5-carboxamides as anti-inflammatory agents” (Orexo AB, priority 2008, dated 2014).

Biological target: T1, recombinant human mPGES-1 (Homo sapiens, UniProt O14684)
T1 construct: made in house; host or cells: Rosetta E. coli (microsomal/membrane fraction)
T1 sequence (O14684 1-152): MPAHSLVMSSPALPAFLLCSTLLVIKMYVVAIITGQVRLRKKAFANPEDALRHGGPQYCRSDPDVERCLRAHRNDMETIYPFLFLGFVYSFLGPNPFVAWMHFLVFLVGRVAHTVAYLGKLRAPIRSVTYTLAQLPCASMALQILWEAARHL
Assay: mPGES-1 inhibition test (microsomes, PGH2 substrate, HTRF detection of PGE2)
Assay type: biochemical
Details: inhibition of mPGES-1 at 1 μM (marked in cell)
Method in brief: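 First, inhibitor is incubated with microsomal enzyme from Rosetta E. coli in KPi pH 7.4 containing 2.5 mM GSH for 25 minutes at room temperature. Next, PGH2 is added and stopped after one minute with FeCl2 stop solution. Finally, diluted samples undergo HTRF PGE2 quantification.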

inhibition at 1 µM [%]	SMILES
94	Cc1ccc(Cl)c(Nc2nc3cc(C(=O)NC4CCC(C)(C)CC4)c(F)cc3n2C)c1F [Example 627, 2-(6-Chloro-2-fluoro-3-methyl-phenylamino)-6-fluoro-N-(4,4-dimethyl-cyclohex-1-yl)-1-methyl-1H-benzimidazole-5-carboxamide]
96	COc1cc2[nH]c(Nc3c(Cl)ccc(C)c3F)nc2cc1C(=O)N[C@H]1CC[C@H](C(F)(F)F)CC1 [Example 622, 2-(6-Chloro-2-fluoro-3-methyl-phenylamino)-6-methoxy-N-(4-trans-trifluoromethyl-cyclohex-1-yl)-1H-benzimidazole-5-carboxamide]
100	CC(C)Oc1cc2c(cc1C(=O)NC1CCCCC1)nc(Nc1c(Cl)ccc(Cl)c1F)n2C [Example 624, 2-(3,6-Dichloro-2-fluoro-phenylamino)-6-isopropoxy-N-cyclohexyl-1-methyl-1H-benzimidazole-5-carboxamide]
100	O=C(Nc1cccc(C(F)(F)F)c1)c1ccc2[nH]c(Nc3c(Cl)cccc3Cl)nc2c1 [Example 283, 2-(2,6-Dichloro-phenylamino)-1H-benzimidazole-5-carboxylic acid (3-trifluoromethyl-phenyl)-amide]

Same assay, conditions: inhibition of mPGES-1 at 10 μM

inhibition at 10 µM [%]	SMILES
100	Cc1cc(C)nc(NC(=O)c2ccc3[nH]c(Nc4c(Cl)cccc4Cl)nc3c2)c1 [Example 117, 2-(2,6-Dichloro-phenylamino)-1H-benzimidazole-5-carboxylic acid (4,6-dimethyl-pyridin-2-yl)-amide]
100	O=C(Nc1cc(Cl)ccc1Cl)c1ccc2[nH]c(Nc3c(Cl)cccc3Cl)nc2c1 [Example 281, 2-(2,6-Dichloro-phenylamino)-1H-benzimidazole-5-carboxylic acid (2,5-dichloro-phenyl)-amide]
96	CCc1ccnc(NC(=O)c2ccc3[nH]c(Nc4c(Cl)cccc4Cl)nc3c2)c1 [Example 120, 2-(2,6-Dichloro-phenylamino)-1H-benzimidazole-5-carboxylic acid (4-ethyl-pyridin-2-yl)-amide]
80	CC(C)(C)CNC(=O)c1ccc2[nH]c(Nc3c(Cl)cccc3Cl)nc2c1 [Example 140, 2-(2,6-Dichloro-phenylamino)-1H-benzimidazole-5-carboxylic acid (2,2-dimethyl-propyl)-amide]
95	Cc1cc2[nH]c(Nc3c(Cl)cccc3Cl)nc2cc1C(=O)NC1CCC(C)(C)CC1 [Example 123, 2-(2,6-Dichloro-phenylamino)-6-methyl-1H-benzimidazol-5-carboxylic acid (4,4-dimethyl-cyclohexyl)-amide]
100	O=C(NC1CCCCC1)c1ccc2nc(Nc3c(Cl)cccc3Cl)[nH]c2c1 [Example 137, 2-(2,6-Dichloro-phenylamino)-3H-benzimidazole-5-carboxylic acid cyclohexylamide]
96	Cc1nc(NC(=O)c2ccc3[nH]c(Nc4c(Cl)cccc4Cl)nc3c2)sc1C [Example 77, 2-(2,6-Dichloro-phenylamino)-1H-benzimidazole-5-carboxylic acid (4,5-dimethyl-thiazol-2-yl)-amide]
100	O=C(NC1CCCCCC1)c1ccc2[nH]c(Nc3c(Cl)cccc3Cl)nc2c1 [Example 214, 2-(2,6-Dichloro-phenylamino)-1H-benzimidazole-5-carboxylic acid cycloheptyl-amide]
83	O=C(NCc1ccncc1)c1ccc2[nH]c(Nc3c(Cl)cccc3Cl)nc2c1 [Example 236, 2-(2,6-Dichloro-phenylamino)-1H-benzimidazole-5-carboxylic acid (pyridin-4-ylmethyl)-amide]
54	O=C(NCC1CCOCC1)c1ccc2[nH]c(Nc3c(Cl)cccc3Cl)nc2c1 [Example 217, 2-(2,6-Dichloro-phenylamino)-1H-benzimidazole-5-carboxylic acid (tetrahydro-pyran-4-ylmethyl)-amide]
77	O=C(NCC1CCCO1)c1ccc2[nH]c(Nc3c(Cl)cccc3Cl)nc2c1 (centres unmarked) [Example 234, 2-(2,6-Dichloro-phenylamino)-1H-benzimidazole-5-carboxylic acid (tetrahydro-furan-2-ylmethyl)-amide]
100	CS(=O)(=O)c1cccc(NC(=O)c2ccc3[nH]c(Nc4c(Cl)cccc4Cl)nc3c2)c1 [Example 224, 2-(2,6-Dichloro-phenylamino)-1H-benzimidazole-5-carboxylic acid (3-methanesulfonyl-phenyl)-amide]

Continued, molecule first:

SMILES	inhibition at 10 µM [%]
CN(C)c1cccc(Cl)c1Nc1nc2cc(C(=O)Nc3ccc(Br)cc3)ccc2n1C [Example 499, N-(4-Bromophenyl)-2-(2-chloro-6-(dimethylamino)phenylamino)-1-methyl-1H-benzimidazole-5-carboxamide]	100
CC(NC(=O)c1ccc2c(c1)nc(Nc1c(Cl)cccc1Cl)n2C)c1ccccn1 (centres unmarked) [Example 242]	70
COc1cccnc1CNC(=O)c1cc2nc(Nc3c(Cl)cccc3Cl)n(C)c2cc1F [Example 529, 2-(2,6-Dichlorophenylamino)-6-fluoro-N-((3-methoxypyridin-2-yl)methyl)-1-methyl-1H-benzimidazole-5-carboxamide]	93
Cc1ccc(NC(=O)c2ccc3c(c2)nc(Nc2c(Cl)cccc2Cl)n3C)nc1 [Example 327, 2-(2,6-Dichloro-phenylamino)-1-methyl-1H-benzimidazole-5-carboxylic acid (5-methyl-pyridin-2-yl)-amide]	100
Cn1c(Nc2c(F)cccc2C(F)(F)F)nc2cc(C(=O)Nc3ccc(Br)cc3)ccc21 [Example 358, N-(4-Bromophenyl)-2-(2-fluoro-6-trifluoromethyl-phenylamino)-1-methyl-1H-benzimidazole-5-carboxamide]	100
C[C@@H]1CCC[C@@H](NC(=O)c2cc3nc(Nc4c(Cl)cccc4Cl)n(C)c3cc2F)C1 [Example 442, 2-(2,6-Dichlorophenylamino)-6-fluoro-1-methyl-N-((1R,3R)-3-methylcyclohexyl)-1H-benzimidazole-5-carboxamide]	99
COCCCn1c(Nc2c(Cl)cccc2Cl)nc2cc(C(=O)Nc3cc(Cl)ccn3)ccc21 [Example 274, 2-(2,6-Dichloro-phenylamino)-1-(3-methoxy-propyl)-1H-benzimidazole-5-carboxylic acid (4-chloro-pyridin-2-yl)-amide]	100
CCCCOc1cccc(NC(=O)c2ccc3c(c2)nc(Nc2c(Cl)cccc2Cl)n3C)n1 [Example 349, 2-(2,6-Dichloro-phenylamino)-1-methyl-1-H-benzimidazole-5-carboxylic acid (6-butoxy-pyridin-2-yl)-amide]	100
Cc1cccc(NC(=O)c2ccc3c(c2)nc(Nc2c(Cl)cccc2Cl)n3C)n1 [compound 328]	95
Cn1c(Nc2ccc(F)cc2C(F)(F)F)nc2cc(C(=O)Nc3ccc(Br)cc3)ccc21 [Example 385, N-(4-Bromophenyl)-2-(4-fluoro-2-trifluoromethyl-phenylamino)-1-methyl-1H-benzimidazole-5-carboxamide]	99
Cn1c(Nc2c(Cl)cccc2Cl)nc2cc(C(=O)Nc3cc(Cl)ccn3)cc(Br)c21 [Example 492, 7-Bromo-N-(4-chloropyridin-2-yl)-2-(2,6-dichlorophenylamino)-1-methyl-1H-benzimidazole-5-carboxamide]	98
COc1cc2c(cc1C(=O)NC1CCC(C)(C)CC1)nc(Nc1c(Cl)ccc(Cl)c1F)n2C [Example 621, 2-(3,6-Dichloro-2-fluoro-phenylamino)-6-methoxy-N-(4,4-dimethyl-cyclohex-1-yl)-1-methyl-1H-benzimidazole-5-carboxamide]	99
CCc1ccc(C)nc1NC(=O)c1ccc2c(c1)nc(Nc1c(Cl)cccc1Cl)n2C [Example 545, 2-(2,6-Dichlorophenylamino)-N-(3-ethyl-6-methylpyridin-2-yl)-1-methyl-1H-benzimidazole-5-carboxamide]	89
Cn1c(Nc2c(Cl)cccc2Cl)nc2cc(C(=O)Nc3cc(C(F)(F)F)ccn3)ccc21 [Example 203, 2-(2,6-Dichloro-phenylamino)-1-methyl-1H-benzimidazole-5-carboxylic acid (4-trifluoromethyl-pyridin-2-yl)-amide]	100
O=C(Nc1cccc(Cl)c1)c1cc2nc(Nc3c(Cl)cccc3Cl)[nH]c2cc1Cl [Example 56, 2-(2,6-Dichloro-phenylamino)-6-chloro-1H-benzimidazol-5-carboxylic acid (3-chloro-phenyl)-amide]	100
Cn1c(Nc2c(F)cccc2F)nc2cc(C(=O)Nc3ccc(Br)cc3)ccc21 [Example 173, 2-(2,6-Difluoro-phenylamino)-1-methyl-1H-benzimidazole-5-carboxylic acid (4-bromo-phenyl)-amide]	97
Cn1c(Nc2c(Cl)cccc2Cl)nc2cc(C(=O)NCCc3cccnc3)ccc21 [Example 259, 2-(2,6-Dichloro-phenylamino)-1-methyl-1H-benzimidazole-5-carboxylic acid (2-pyridin-3-yl-ethyl)-amide]	89
O=C(Nc1ccc(Br)c(F)c1)c1cc2nc(Nc3c(Cl)cccc3Cl)[nH]c2cc1F [Example 121, 2-(2,6-Dichloro-phenylamino)-6-fluoro-1H-benzimidazol-5-carboxylic acid (4-bromo-3-fluoro-phenyl)-amide]	95
Cc1cc(C(=O)Nc2ccc(Cl)c(F)c2)cc2nc(Nc3c(Cl)cccc3Cl)[nH]c12 [Example 52, 2-(2,6-Dichloro-phenylamino)-7-methyl-1H-benzimidazole-5-carboxylic acid (4-chloro-3-fluoro-phenyl)-amide]	100
